Measured values published in paper PMC11695203, “A new peptide inhibitor of C1QBP exhibits potent anti‐tumour activity against triple negative breast cancer by impairing mitochondrial function and suppressing homologous recombination repair” (Clinical and Translational Medicine, 2025).

Tests used:
MDA-MB-231 xenograft = assay: MDA-MB-231 tumour model in nude mice; type: in vivo, BALB/c nude mice; conditions: PJ34-HCL combination study, harvested tumours
Description: (§1) Four‐week‐old BALB/c nude mice (Charles River Laboratories, Beijing, China) were subcutaneously inoculated in the breast fat pad with 1 × 10^7 MDA‐MB‐231 cells. The treatment group received 10 mg/kg PDBAG1, while the control group was administered an equal volume of PBS. For preliminary experiment of immunocompetent mice, 4‐week‐old BALB/c mice (Charles River Laboratories) were subcutaneously inoculated in the mammary fat pad with 1 × 10^6 4T1 cells. The treatment group received 10 mg/kg PDBAG1, while the control group was administered an equal volume of PBS. For evaluating the PJ34‐HCL combination, 28 randomly assigned BALB/c nude mice were divided into respective treatment groups as follows: Group 1 served as a negative control and received PBS; Group 2 received intraperitoneal injections of 10 mg/kg PDBAG1 every 3 days; Group 3 received 1 mg/kg PJ34‐HCL every 3 days; Group 4 was treated with a combination of 10 mg/kg PDBAG1 and 1 mg/kg PJ34‐HCL every 3 days. Both PDBAG1 and PJ34‐HCL were dissolved in specific concentrations of normal saline and administered intraperitoneally. All mice were sacrificed 4 weeks after inoculation, and their subcutaneous xenografts were resected and weighed. Subsequently, formalin‐fixed subcutaneous tumours were processed into paraffin‐embedded sections for routine IHC analysis. […]

MDA-MB-231 cells = assay: CCK-8 assay, MDA-MB-231; type: cell-based, human; conditions: CCK-8, MDA-MB-231 and MDA-MB-468, co-treated 72 h / 24 h
Description: The cells were cultured at the corresponding cell densities in 96‐well plates. Following treatment with specific concentrations of reagents for designated durations, the CCK8 reagent was added to each well at a final ratio of 10% (v/v). After incubation for 2 h, the absorbance at 450 nm was measured using a microplate reader (H4, Synergy). For the Edu assay, logarithmic growth phase cells were inoculated into 96‐well plates at a density of 3 × 10^4 cells/mL. Subsequently, they were treated with specific concentrations of reagents for designated durations and then replaced with EdU medium containing a final concentration of 10 µmol/L. The cells were incubated for an additional period of 2 h. Following PBS washing and fixation with 4% paraformaldehyde for 30 min, Apollo staining reaction solution was added according to instructions and allowed to react for another 30 min. This was followed by addition of DAPI staining reaction solution for a duration of 10 min before washing again with PBS. Three randomly selected fields of vision from each group in each well were calculated and photographed under a fluorescence microscope. […] Three random fields of view were selected to quantify the number of cells that traversed through the microporous membrane.

[1] = system: HEK-293T and MCF-10A cell lines; conditions: 30 μM, 24 hours
[2] = In vivo toxicity: body weight and HE staining of spleen, liver, kidney; conditions: PDBAG1 10 mg/kg, PJ34-HCL 1 mg/kg i.p. every 3 days
Description: as §1

[3] = system: MDA-MB-231 and MDA-MB-468 cells; conditions: FITC-labelled PDBAG1 50 µM, 6 h, fluorescence microscopy
Description: The cells were seeded in a 24‐well plate, and FITC‐labelled PDBAG1 was added to the cell culture medium at a final concentration of 50 µM. After three washes with PBS, performed 6 h post peptide addition, the samples were fixed with 4% paraformaldehyde for 15 min and stained with DAPI (5 µg/mL) for 5 min. Following PBS washing, fluorescence microscopy was employed for observation.

C1QBP = conditions: cited from earlier work
Source text: C1QBP, targeted by PDBAG1, predominantly localises in the mitochondrial matrix and plays a crucial role in mitochondrial protein translation and function.[3] It represents a promising therapeutic target for various human cancers, including breast cancer. We observed significant overexpression of C1QBP in the TNBC subtype, which correlated with worse DFS. Based on our findings, we believe PDBAG1 primarily affects tumour cells, with minimal toxicity to normal cells. Although PDBAG1's precursor peptide is derived from normal adipose tissue, its impact on adipose metabolism is likely less pronounc ...

human C1QBP 74–282 = molecular target: T1, human C1QBP 74–282 (human, UniProt Q07021 74-282); assay: ITC; PDBAG1 (500 µM) in the syringe into C1QBP 74–282 (17.0 µM) in the cell, 25°C, MicroCal VP ITC, no Zn2+, one set-of-sites model; buffer by the methods 20 mM HEPES pH 7.5, 600 mM NaCl, 1 mM EDTA, 1 mM EGTA, 5% glycerol, by the legend 20 mM potassium phosphate, 100 mM NaCl, pH 7.4; conditions: both partners purified
T1 construct: also called p32; source: vector a gift from Dr Adrian R. Krainer
T1 sequence (looked up): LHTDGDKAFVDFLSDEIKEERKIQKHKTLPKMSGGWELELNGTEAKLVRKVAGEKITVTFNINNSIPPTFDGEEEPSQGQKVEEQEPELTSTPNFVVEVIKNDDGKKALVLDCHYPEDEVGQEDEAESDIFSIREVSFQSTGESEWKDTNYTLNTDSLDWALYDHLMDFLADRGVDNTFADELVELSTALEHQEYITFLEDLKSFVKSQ

CN(C)CC(=O)Nc1ccc2[nH]c(=O)c3ccccc3c2c1.Cl [PJ34‐HCL]
C1QBP protein in tumour tissue (IHC, western blot) (MDA-MB-231 xenograft): no substantial changes
Cell viability with PARP inhibitor, alone or combined with PDBAG1 (MDA-MB-231 cells): exhibited significant effects

Ac-GRKKRRQRRRPPQQASKKVCIVGSGNWGSAIA-NH2 [PDBAG1]
Morphological alterations in non-tumour cells [1]: no obvious in morphological alterations
Body weight during or after drug administration [2]: no significant differences
HE staining of spleen, liver and kidney [2]: no notable deviations from normal structure and morphology
Cell penetration [3]: potent cell‐penetrating properties

CGKRK [tumour-specific vascular homing peptide]
Binding to C1QBP (C1QBP): can bind to cell surface‐associated C1QBP

CGNKRTRGC [LyP‐1]
Binding to C1QBP (C1QBP): can bind to cell surface‐associated C1QBP

B1: PDBAG1 (peptide derived from breast adipose tissue GPD1) (peptide)
peptide: GRKKRRQRRRPPQQASKKVCIVGSGNWGSAIA
notes: stretch of glycerol-3-phosphate dehydrogenase 1 (GPD1), found by peptidomics in benign breast adipose tissue of patients; also called peptide PDBAG1; source: synthetic peptide (Fmoc solid-phase synthesis, Shanghai Science Peptide Biological Technology Co)
Kd (human C1QBP 74–282): 334 nM
